From paper PMC9033217, “Synthesis, characterization and biological evaluation of dipicolylamine sulfonamide derivatized platinum complexes as potential anticancer agents” (RSC Advances, 2021)

How the values were obtained:
[1] = system: human breast cancer cells (MCF-7); assay: Antiproliferative activity / cytotoxicity by sulforhodamine B assay in MCF-7 cells; assay type: cell-based; conditions: for IC50: MCF7, MCF-7 human breast cancer cells, 24 hours exposure, sulforhodamine B assay, triplicate
Method: (§1) The ligands and corresponding metal complexes were investigated for their cytotoxicity against MCF-7 (breast cancer) cells and MCF-10A (normal human breast) cells. Cells were cultured in 96-well culture plates and exposed to 12.5 μg ml^−1, 25 μg ml^−1, 50 μg ml^−1 and 100 μg ml^−1 concentrations of ligands and complexes for 24 hours and cytotoxicity was assessed by sulforhodamine B assay. All exposures were carried out in triplicate. Briefly, the cell supernatant was completely removed and washed with phosphate buffer solution. Trichloroacetic acid (50%, […]) was added on top of fetal bovine serum-free fresh medium (200 μl) to make final concentration of 10% trichloroacetic acid and was incubated at 4 °C for one hour prior to the SRB assay. The plates were then washed with five washing cycles with water and dried completely. An aliquot of 100 μl of 0.4% sulforhodamine B dissolved in 1% trichloroacetic acid, was added to each well, and was allowed to stain for 15 minutes. The plates were again washed with five washing cycles to remove unbound dye using 1% (vol/vol) acetic acid after removing the stain. The protein bound dye was solubilized with trisbase (10 mM, pH 7.5, 200 μl), after air drying. The plates were then shaken for 60 minutes to homogenize the dye solution. The absorbance was then measured at 540 nm using Synergy HTBioTek microplate reader. The percentage viability was calculated by the equation given below.1 [drawing 1]
(§2) Three ligands and three novel complexes were assayed for their antiproliferative activity in human breast cancer cells (MCF-7) and normal human breast cells (MCF-10A). In this study, the cell lines were exposed to synthesized compounds in a concentration gradient up to […] and the half maximal inhibitory concentration (IC50) was determined for each compound. Cytotoxicity was measured with sulforhodamine B assay.

[2] = system: normal human breast cells (MCF-10A); assay: Antiproliferative activity / cytotoxicity by sulforhodamine B assay in MCF-10A cells; assay type: cell-based; conditions: MCF-10A normal human breast cells, 24 hours exposure, triplicate
Method: as §1, §2

| Compound | shape of cytotoxicity curve ([1]; Fig. S3, IC50 graphs against MCF-7) | IC50 [1] [µM] | IC50 [2] [µM] |
| --- | --- | --- | --- |
| O=S(=O)(c1cccc2ccccc12)N(Cc1ccccn1)Cc1ccccn1 [N(SO2(1-nap))dpa] | biphasic cytotoxicity curve | 92 ± 0.06 | 1583 ± 0.04 |
| O=S(=O)(c1ccc2ccccc2c1)N(Cc1ccccn1)Cc1ccccn1 [N(SO2(2-nap))dpa] | – | 18.1 ± 0.1 | 581 ± 0.04 |
| O=S(=O)(N1CCCCC1)N(Cc1ccccn1)Cc1ccccn1 [N(SO2pip)dpa] | – | 21.2 ± 0.1 | 948.5 ± 0.04 |
